The values below come from patent US7276527B2, “5-pyridyl-1,3-azole compounds, process for producing the same and use thereof” (Takeda Pharmaceutical Company Limited, priority 1999, dated 2007).

The target in the assay is T1, human adenosine A3 receptor (Homo sapiens, UniProt P0DMS8).
T1 construct: expressed in transfected cells; membrane fraction
T1 sequence (P0DMS8 1-318): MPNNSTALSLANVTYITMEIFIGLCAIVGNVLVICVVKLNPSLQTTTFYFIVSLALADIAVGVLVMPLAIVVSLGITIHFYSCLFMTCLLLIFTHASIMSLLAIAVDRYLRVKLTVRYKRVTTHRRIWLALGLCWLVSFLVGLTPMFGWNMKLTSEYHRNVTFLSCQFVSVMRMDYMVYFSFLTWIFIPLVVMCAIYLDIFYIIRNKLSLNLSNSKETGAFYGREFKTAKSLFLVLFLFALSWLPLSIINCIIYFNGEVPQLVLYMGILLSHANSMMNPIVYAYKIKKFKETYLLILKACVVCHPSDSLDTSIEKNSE
Nature of the assay: Adenosine A3 receptor binding test. The conditions noted are these: membrane fraction of A3AR/CHO strain, [3H]-NECA 10 nM, room temperature 1 hour; read-out: IC50 (concentration necessary for decreasing an amount of binding of [3H]-NECA to the membrane fraction by 50%). Here is the method:
Genetic procedures were according to a method described in Molecular Cloning, published by Cold Spring Harbor, Laboratory, 1989 or a method described in the attached protocol of the reagent.
1) Cloning of Human Adenosine A3 Receptor
Cloning of an adenosine A3 receptor gene was performed from human brain cDNA by a PCR method. A PCR reaction was performed with a DNA thermal cycler 480 (Perkin Elmer) by using 1 ng of brain cDNA (Toyobo, QUICK-Clone cDNA) as a template, adding each 50 pmol of a primer set 5′-[…]-3′ (SEQ ID NO: 1) and 5′-[…]-3′ (SEQ ID NO: 2) made by reference to adenosine A3 receptor gene base sequence reported by Salvatore et al. (Proc. Natl. Acad. Sci. U.S.A., 90:10365-10369, 1993) and employing Takara LA PCR Kit Ver. 2 (Takara Shuzo) (reaction conditions: 35 cycles of 1 minute at 95° C., 1 minute at 66° C., 2 minutes at 75° C.). The resulting PCR product was subjected to agarose gel electrophoresis and 1.0 kb of DNA fragment was recovered and, thereafter, an adenosine A3 receptor gene was cloned using Original TA Cloning Kit (Funakoshi).
Next, the resulting plasmid was digested with a restriction enzyme XbaI (Takara Shuzo), treated with T4 DNA polymerase (Takara Shuzo) into end-blunted fragments and further digested with SalI (Takara Shuzo) to obtain adenosine A3 receptor gene fragments.
2) Preparation of a Plasmid for Expressing of Human Adenosine A3 Receptor […]

As to `Cc1cc(C)cc(-c2nc(N)sc2-c2ccnc(OCc3ccccc3)c2)c1` [Example 1, [4-(3,5-dimethylphenyl)-5-(2-phenylmethyloxy-4-pyridyl)-1,3-thiazol-2-yl]amine], the IC50 was 11.6 nM.
